The numbers were not newly measured in patent publication US20230381356A1 (priority 2021, published 2023), which cites them from elsewhere.

In one data set the test system is Pixuna virus. Particulars: GITC alone at or near saturation (~3.5M).
Another data set has as its system SARS-CoV-2. Particulars: GITC alone, even in high concentrations.
In the next data set the test system is Ebola Virus. Particulars: saturated GITC solution ~3.5M alone.
The next data set concerns Virus. Particulars: in <1 minute, final concentration of 1% (v/v).
For data set [1], the system named is Bovine Viral Diarrheal Virus.
The test system of data set [2] is Xenotropic murine leukemia virus.

On to `N#CS.N=C(N)N` [GITC, Guanidine isothiocyanate], for which the “inactivation of Pixuna virus” value with Pixuna virus is “did not effectively inactivate”. Also, the “inactivation of SARS-CoV-2” value in the data set on SARS-CoV-2 is recorded as 50-75%. The “inactivation of Ebola Virus” value in the data set on Ebola Virus is on record as “does not inactivate”.

Regarding Triton X-100, the log reduction with Virus was 4 log. Moreover, in data set [1], the “inactivation of Bovine Viral Diarrheal Virus” value was “inactivate”. Moreover, the “inactivation of Pseudorabies Virus” value with Pseudorabies Virus is “inactivate”. The “inactivation of Xenotropic murine leukemia virus” value in data set [2] is given as “inactivate”. For the same compound, the “inactivation of HIV” value in the data set with HIV was “inactivate”.
